From paper PMC11852064 (Antibiotics, 2025)
Read-outs that look alike come from different tables or passages of the source.

Legend:
[1] = cited from earlier work
S. aureus = conditions: ref 14; cited from earlier work
[2] = elimination via combination of renal and nonrenal clearance; cited from earlier work
[3] = cited from earlier work; remark: listed apart in the source
[4] = Population pharmacokinetic analysis of multidose DAL in adult patients (NONMEM); assay type: in vivo, human
Excerpt: This prospective/retrospective study was approved by Liguria Territorial Ethics Committee (DALT DRUM Study, Registration number 82/2023—DB id 13014) and carried out from February 2023 to February 2024 at Ente Ospedaliero Ospedali Galliera, Genoa, Italy. Adult patients referred to the Department of Infectious Diseases with documented or suspected Gram-positive infection who failed primary antimicrobial therapy and were prescribed a multidose DAL regimen as a rescue treatment were deemed eligible for inclusion and after signing the informed consent they were enrolled in the study.
To avoid impacting patient lifestyle and routine clinical practice, a sparse sampling strategy was also adopted for outpatients needing blood tests at the convenience of the prescribing physician.
Pharmacokinetic data were analyzed according to a nonlinear mixed-effects modeling approach using NONMEM v7.5 with Pirana modeling workbench, whilst R, version 4.3.2, was used for data formatting and graphical and statistical summaries. No data transformation was applied to PK concentrations prior to the analysis.
From an initial model (one-compartment, first-order elimination with proportional error model), different possible combinations of structural and stochastic models, as well as the inter-individual variability (IIV) of PK parameters were assessed. The effect of several covariates, previously screened for their influence on the PK parameters of the drug under study, was then included in a stepwise manner with backward elimination in the final model. Continuous covariates (age, weight, height, serum albumin, creatinine, creatine clearance, PCR) were centered on their median value and their effect was evaluated by linear and non-linear relationships. Improvement between models was judged based on a decrease in objective function value (OFV) greater than 3.84 units (p < 0.05) using the FOCE-I estimation method, whilst an increase by more than 6.64 units (p < 0.01) upon removal was adopted during backward exclusion. Additionally, during the initial model-building process outliers were detected and excluded from the analysis based on visual examination of data points identified with conditional weighted residuals (CWRES) > 3. To evaluate the influence of outliers, a sensitivity analysis was conducted in which the updated popPK model was run with and without outliers. If a statistically significant change in OFV or in the estimation of key fixed-effects parameters was observed, outliers were considered influential in the modeling steps and commented out.
The predictive performance of the PK models was assessed by appropriateness of the relative standard error (RSE < 30%), graphically by means of classical key diagnostic plots, prediction-corrected visual predictive check (pcVPC), and by inspecting bootstrap results from 1000 resampled datasets. Finally, eta-shrinkage values were calculated to identify and quantify model overfitting.

[5] = design: method as in earlier work; conditions: ref 40, 41; cited from earlier work
[6] = test system: Staphylococcus aureus, Staphylococcus epidermidis, Enterococcus spp. vancomycin-sensitive (VSE), or vancomycin-resistant Van B biofilms; conditions: ref 37, 38; cited from earlier work
Excerpt: In some instances, TDM ...

[7] = bootstrap, 1000 resampled datasets
[8] = final two-compartment popPK model, allometric body weight, 30 adult patients, CLcr > 30 mL/min

| Substance | duration of sufficient tissue exposure [1] [weeks] | Former EUCAST clinical breakpoint of susceptibility (MIC) (S. aureus) [µg/mL] | Renal share of elimination (renal clearance) [2] | Free fraction of DAL in plasma ([3]; as reported on the label) [%] | Binding to plasma proteins ([3]; ref 5) [%] | Binding to plasma proteins ([3]; ref 28) [%] | CL, bootstrap median (CI 5-95%) [4, 7] | Q, bootstrap median (CI 5-95%) [4, 7] | V1, bootstrap median (CI 5-95%) [4, 7] | V2, bootstrap median (CI 5-95%) [4, 7] | Q, inter-compartmental clearance, estimate [4, 8] [L/h] | V1, central volume of distribution, estimate [4, 8] [L] | V2, peripheral volume of distribution, estimate [4, 8] [L] | CL, total body clearance, estimate ([4]; human, in vivo, iv, 1500 mg) [L/h] | EUCAST/USCAST clinical breakpoint MIC [5] [µg/mL] | Activity in vitro against established biofilms [6] |
| --- | --- | --- | --- | --- | --- | --- | --- | --- | --- | --- | --- | --- | --- | --- | --- | --- |
| Dalbavancin [listing 1 of 2 here] | 8 | – | – | – | – | – | – | – | – | – | – | – | – | – | – | – |
| Dalbavancin [listing 2 of 2 here] | – | 0.125 | approximately 45% | 7 | 93 | 93 | 0.0272 (0.0251–0.0294) L/h | 0.0223 (0.0175–0.02936) L/h | 3.6 (3.4–3.8) L | 6.5 (5.6–7.5) L | 0.0225 | 3.6 | 6.4 | 0.0273 | 0.25 | potent activity |
